Measured values from patent US10004716B2, “Therapeutic/ preventive agent containing coumarin derivative as active ingredient” (NIPPON ZOKI PHARMACEUTICAL CO., LTD., priority 2014, dated 2018).

Key:
IL-6 gene expression = assay: Suppression of LPS-induced gene expression of inflammation-related factors in THP-1 cells (real time PCR): IL-6; format: cell-based, human; settings: PMA-differentiated THP-1 cells; test substance 12.5 μmol/mL 2 hours, then LPS 10 mg/mL 3 hours; n = 3
Protocol: THP-1 cells were subjected to induction of differentiation for 72 hours with PMA (phorbol 12-myristate 13-acetate; 100 nM/L) and then the THP-1 cells (5×10^5 cells/mL) were incubated for 24 hours in a RPMI 1640+10% FCS culture solution in a 24-well plate. After that, a test substance was added so as to make the final concentration 12.5 μmol/mL followed by conducting the preincubation for 2 hours, a lipopolysaccharide (LPS) was then added thereto so as to make the final concentration 10 mg/mL and, after 3 hours, the cells were recovered.
(§1) QIAzol Lysis Reagent (QIAGEN) (1 mL) was added to the above to suspend, 200 μL of chloroform was added thereto followed by mixing and centrifugation (at 4° C. and 1500 rpm) was conducted whereby the supernatant liquid was recovered. Total RNA was extracted and purified by treating the supernatant liquid with QIACube (QIAGEN) and RNeasy Micro Kit (QIAGEN). cDNA was prepared from the total RNA using Omniscript RT kit (QIAGEN) and Oligo(dT)12-18 Primer (Invitrogen).
(§2) Gene expression level of the inflammation-related factors [IL-1β, IL-6 and monocyte chemotactic protein (MCP)-1] was measured by a conventional real time PCR method using a fluorescent dye SYBR GREEN I (Roche Diagnostics) by Light Cycler LC 480 (the same) using cDNA synthesized from the total RNA extracted in the above (2). A calibration curve was prepared by diluting the PCR product quantified by PicoGreen dsDNA Quantitation kit (Molecular probes) (a DNA quantitation kit) to an extent of 10^2˜10^7 copies/μL. From each of the resulting quantified values, copy numbers per 10000 copies of GAPDH gene being an internal standard were calculated.

[1] = tested on: fibronectin gene expression; assay: Evaluation I: TGF-β-induced gene expression of fibrosis-related factors in NHLF cells: fibronectin; format: cell-based, human; settings: 25 μmol/L test substance 2 hours, then TGF-β 5 ng/mL 24 hours, n = 3
Protocol: NHLF cells were sown so as to make their amount 4×10^4 cells/well to each well of a 12-well plate and incubated to an extent of 80% confluent in a medium where fibroblast growth medium 2 supplement mix (FGM-2 SingleQuots, Lonza) was added to a fibroblast basal medium (FBM, Lonza). After that, incubation was conducted for 2 hours in a Dulbecco modified Eagle medium (DMEM) containing 25 μmol/L of a test substance and, after addition of […] growth factor (TGF)-β thereto so as to make its final concentration 5 ng/mL, incubation was carried out for 24 hours more.
as §1, with “rpm) was then conducted whereby” for “rpm) was conducted whereby”
as §2, with “fibrosis-related” for “inflammation-related”, “[connective tissue growth factor (CTGF), α-smooth muscle actin (SMA), fibronectin, endothelin” for “[IL-1β, IL-6”, “type I collagen (Col 1)]” for “monocyte chemotactic protein (MCP)-1]”

[2] = tested on: rats suffering from degenerative intervertebral disk induced by nicotine; assay: Duration of walking time (rotor rod) in rats with degenerative intervertebral disk induced by nicotine; format: in vivo; settings: SD male rats, after 48 days from initiation of exposure to nicotine, 300 seconds maximum, per os once daily, n = 8, normal control 274.1, diseased control 147.7
Protocol: After 16 days from the purchase, SD male rats were organized into normal control group and nicotine group in terms of body weight, 50% reaction threshold value (measuring method will be mentioned later) and duration of walking time and, after 17 days from the purchase, exposure to nicotine was started for a nicotine group. Nicotine was prepared into 344.8 mg/mL using a physiological saline solution, filled into an osmotic pressure pump and retained under the skin of waist of rats. After 21 days from the retaining, an osmotic pressure pump into which a freshly-prepared nicotine solution was filled was retained under the skin of rats of five groups except the normal control group. Nicotine was prepared into […] using a physiological saline solution, filled into an osmotic pressure pump and retained under the skin of waist of the SD male rats.
After 13 days from exposure to nicotine, measurement of 50% reaction threshold value, duration of walking time and body weight were measured and a group organization was done into 6 groups of normal control group, diseased control group, compound 57-administered group, compound 58-administered group, compound 60-administered group and compound 68-administered group.
A test substance was suspended using 0.5 w/v % CMC and, together with stirring, 10 mL/kg of the suspension was repeatedly administered per os once daily after 14 to 52 or 53 days from the initiation of exposure to nicotine using an oral sonde for rats. To the normal control group and the diseased control group, 0.5 w/v % CMC was repeatedly administered per os in the same administration schedule and administration method.
Before the exposure to nicotine and after 48 days from the initiation of the exposure to nicotine, duration of waling time of rats was measured using a rotor rod for both rats and mice. A rotating speed was adjusted in such a manner that, when rotation was started in constant acceleration from the state where a rotor stopped, it reached 15 rotations per minute after 300 seconds. A rat was placed on a rotor which was in a stopped state, then the rotor was rotated, the time until the rat dropped was measured (300 seconds in maximum) and a mean value of three runs was determined.

Compound	Copy Numbers per 10000 Copies of GAPDH IL-6 (IL-6 gene expression)	Copy Numbers per 10000 Copies of GAPDH Fibronectin [1]	Duration of Walking Time [2] [s]
O=c1oc2c(OS(=O)(=O)c3ccc(C(F)(F)F)cc3)cccc2cc1NS(=O)(=O)c1cccc(C(F)(F)F)c1 [Compound 57, 2-Oxo-3-[[3-(trifluoromethyl)phenyl]sulfonylamino]-chromen-8-yl 4-(trifluoromethyl)benzenesulfonate]	49.0 copies per 10000 copies of GAP	21220.7 copies per 10000 copies of GAP	187.3
O=c1oc2c(OS(=O)(=O)c3ccc(C(F)(F)F)cc3)cccc2cc1NS(=O)(=O)c1cccc(Br)c1 [Compound 58, 3-[(3-Bromophenyl)sulfonylamino]-2-oxochromen-8-yl 4-(trifluoromethyl)benzenesulfonate]	93.2 copies per 10000 copies of GAP	18665.2 copies per 10000 copies of GAP	210.9
O=c1oc2c(OS(=O)(=O)c3cccc(Br)c3)cccc2cc1NS(=O)(=O)c1cccc(C(F)(F)F)c1 [Compound 60, 2-Oxo-3-[[3-(trifluoromethyl)phenyl]sulfonylamino]-chromen-8-yl 3-bromobenzenesulfonate]	275.2 copies per 10000 copies of GAP	30000.8 copies per 10000 copies of GAP	208.4
O=c1oc2c(OS(=O)(=O)c3cccc(C(F)(F)F)c3)cccc2cc1NS(=O)(=O)c1ccc(C(F)(F)F)cc1 [Compound 68, 2-Oxo-3-[[4-(trifluoromethyl)phenyl]sulfonylamino]-chromen-8-yl 3-(trifluoromethyl)benzenesulfonate]	95.7 copies per 10000 copies of GAP	26090.7 copies per 10000 copies of GAP	189.2
